According to the NIST ThermoML archive (doi:10.1021/je034053i):

Experiments:
[1] = 298.15 K; for surface tension liquid-gas: Drop volume; for mass density: 101.33 kPa, Liquid
[2] = refractive index (Na D-line) (dimensionless); conditions: 298.15 K; 101.33 kPa; Liquid; Standard Abbe refractometry
[3] = xn = mol fraction of the nth substance listed; conditions: 298.15 K; for surface tension liquid-gas: Drop volume; for mass density: 101.3 kPa, Liquid
[4] = refractive index (Na D-line) (dimensionless); xn = mol fraction of the nth substance listed; conditions: 298.15 K, 101.3 kPa, Liquid, Standard Abbe refractometry

CCCCO [butan-1-ol]
Conditions | mass density [kg/m3] | refractive index | surface tension liquid-gas [mN/m]
[1] | 805.76 | – | 24.02
[2] | – | 1.3973 | –

CCO [ethanol]
Conditions | mass density [kg/m3] | refractive index | surface tension liquid-gas [mN/m]
[1] | 785.15 | – | 21.74
[2] | – | 1.3593 | –

CCCCCCCO [heptan-1-ol]
Conditions | mass density [kg/m3] | refractive index | surface tension liquid-gas [mN/m]
[1] | 818.75 | – | 26.47
[2] | – | 1.4224 | –

CCCCCCCO [heptan-1-ol] + CCCCCCCC
Conditions | refractive index, [4] | surface tension liquid-gas, [3] [mN/m]
x2 = 0.0616 | 1.4205 | –
x2 = 0.0995 | 1.4194 | 25.35
x2 = 0.1699 | 1.4174 | 24.68
x2 = 0.1767 | 1.417 | 24.63
x2 = 0.2957 | 1.4136 | 23.72
x2 = 0.3286 | 1.4126 | 23.52
x2 = 0.353 | 1.4119 | 23.37
x2 = 0.4567 | 1.4091 | 22.79
x2 = 0.4918 | 1.4081 | 22.65
x2 = 0.5587 | 1.4062 | 22.38
x2 = 0.5956 | 1.4051 | 22.24
x2 = 0.6564 | 1.4036 | 22.04
x2 = 0.6626 | – | 22.01
x2 = 0.6629 | 1.4034 | –
x2 = 0.783 | 1.4002 | 21.68
x2 = 0.7981 | 1.3999 | 21.63
x2 = 0.8409 | 1.3988 | 21.53
x2 = 0.9111 | 1.3971 | 21.38
x2 = 0.958 | – | 21.28

CCCCCCO [hexan-1-ol]
Conditions | mass density [kg/m3] | refractive index | surface tension liquid-gas [mN/m]
[1] | 815.15 | – | 25.73
[2] | – | 1.4159 | –

CCCCCCO [hexan-1-ol] + CCCCCCCC
Conditions | refractive index, [4] | surface tension liquid-gas, [3] [mN/m]
x2 = 0.0515 | 1.4147 | 25.19
x2 = 0.0944 | 1.4136 | 24.79
x2 = 0.16 | 1.4119 | 24.22
x2 = 0.1837 | 1.4113 | 24.03
x2 = 0.2785 | 1.4091 | 23.38
x2 = 0.3309 | – | 23.08
x2 = 0.3311 | 1.4079 | –
x2 = 0.4619 | 1.4049 | 22.48
x2 = 0.4987 | 1.404 | 22.32
x2 = 0.5049 | 1.4039 | 22.3
x2 = 0.5984 | 1.402 | 22.02
x2 = 0.6717 | 1.4007 | 21.83
x2 = 0.7019 | 1.4 | 21.74
x2 = 0.7478 | 1.3992 | 21.65
x2 = 0.7794 | 1.3987 | 21.58
x2 = 0.8504 | 1.3974 | 21.45
x2 = 0.895 | 1.3966 | 21.38
x2 = 0.959 | 1.3956 | 21.25

CCCCCCCCO [octan-1-ol]
Conditions | mass density [kg/m3] | refractive index | surface tension liquid-gas [mN/m]
[1] | 821.63 | – | 27.13
[2] | – | 1.4274 | –

CCCCCCCCO [octan-1-ol] + CCCCCCCC
Conditions | refractive index, [4] | surface tension liquid-gas, [3] [mN/m]
x2 = 0.0641 | 1.4257 | 26.39
x2 = 0.12 | – | 25.83
x2 = 0.1378 | 1.4231 | 25.59
x2 = 0.1501 | – | 25.5
x2 = 0.2923 | 1.418 | 24.29
x2 = 0.3168 | 1.4172 | 24.11
x2 = 0.3554 | 1.4159 | 23.84
x2 = 0.4526 | 1.4128 | 23.23
x2 = 0.495 | 1.4114 | 23
x2 = 0.5413 | 1.41 | 22.76
x2 = 0.6269 | 1.4072 | 22.38
x2 = 0.6566 | 1.4062 | 22.24
x2 = 0.6897 | 1.4051 | 22.12
x2 = 0.7547 | 1.403 | 21.88
x2 = 0.8114 | 1.4012 | 21.7
x2 = 0.8617 | 1.3995 | 21.55
x2 = 0.8832 | 1.3989 | 21.51
x2 = 0.9635 | 1.3961 | –

CCCCCCCC [octane]
Conditions | mass density [kg/m3] | refractive index | surface tension liquid-gas [mN/m]
[1] | 698.5 | – | 21.17
[2] | – | 1.3951 | –

CCCCCCCC [octane] + CCCCO
Conditions | refractive index, [4] | surface tension liquid-gas, [3] [mN/m]
x1 = 0.0453 | 1.397 | 23.65
x1 = 0.113 | 1.3966 | 23.15
x1 = 0.1636 | 1.3964 | 22.84
x1 = 0.1788 | 1.3963 | 22.74
x1 = 0.2956 | 1.3957 | 22.2
x1 = 0.3281 | – | 22.08
x1 = 0.3526 | 1.3955 | 21.99
x1 = 0.4467 | 1.3952 | 21.73
x1 = 0.4857 | 1.3951 | 21.65
x1 = 0.5747 | 1.3949 | 21.49
x1 = 0.5886 | – | 21.49
x1 = 0.6326 | 1.3948 | 21.42
x1 = 0.6918 | 1.3948 | 21.36
x1 = 0.777 | 1.3948 | 21.29
x1 = 0.8167 | 1.3948 | 21.28
x1 = 0.865 | 1.3948 | 21.24
x1 = 0.9376 | 1.3949 | 21.21

CCCCCCCC [octane] + CCCO
Conditions | refractive index, [4] | surface tension liquid-gas, [3] [mN/m]
x1 = 0.0237 | 1.3835 | –
x1 = 0.123 | 1.3852 | 22.38
x1 = 0.1859 | 1.3862 | 22.05
x1 = 0.2349 | 1.3869 | 21.81
x1 = 0.29 | 1.3877 | 21.66
x1 = 0.3454 | 1.3884 | 21.53
x1 = 0.3547 | 1.3885 | 21.51
x1 = 0.4493 | 1.3896 | 21.36
x1 = 0.5154 | 1.3903 | 21.3
x1 = 0.5218 | 1.3904 | 21.29
x1 = 0.6224 | 1.3914 | 21.22
x1 = 0.6308 | 1.3915 | 21.21
x1 = 0.6938 | 1.3921 | 21.21
x1 = 0.7592 | 1.3927 | 21.17
x1 = 0.7884 | 1.393 | 21.17
x1 = 0.8449 | 1.3935 | 21.16
x1 = 0.8918 | 1.394 | 21.16
x1 = 0.9245 | 1.3943 | 21.16

CCCCCCCC [octane] + CCO
Conditions | mass density [kg/m3] | refractive index | surface tension liquid-gas [mN/m]
[3], x1 = 0.0131 | 781.56 | – | –
[3], x1 = 0.0523 | 771.81 | – | –
[3], x1 = 0.0686 | – | – | 21.37
[3], x1 = 0.0788 | 766.05 | – | –
[3], x1 = 0.1132 | – | – | 21.2
[3], x1 = 0.1433 | 758.82 | – | –
[3], x1 = 0.1721 | – | – | 21.06
[3], x1 = 0.1881 | 754.27 | – | –
[3], x1 = 0.2228 | 747.52 | – | –
[3], x1 = 0.2616 | 742.94 | – | –
[3], x1 = 0.2867 | – | – | 20.88
[3], x1 = 0.3011 | 738.29 | – | –
[3], x1 = 0.3571 | – | – | 20.82
[3], x1 = 0.3725 | 734.06 | – | –
[3], x1 = 0.3985 | 727.44 | – | –
[3], x1 = 0.4536 | 725.27 | – | –
[3], x1 = 0.4544 | – | – | 20.77
[3], x1 = 0.4898 | – | – | 20.77
[3], x1 = 0.5175 | 721.13 | – | –
[3], x1 = 0.5401 | – | – | 20.78
[3], x1 = 0.5832 | 716.94 | – | –
[3], x1 = 0.5865 | – | – | 20.79
[3], x1 = 0.6299 | – | – | 20.8
[3], x1 = 0.6457 | – | – | 20.81
[3], x1 = 0.669 | – | – | 20.84
[3], x1 = 0.6709 | 713.14 | – | –
[3], x1 = 0.7226 | 708.8 | – | –
[3], x1 = 0.765 | – | – | 20.89
[3], x1 = 0.8041 | – | – | 20.92
[3], x1 = 0.8191 | – | – | 20.94
[3], x1 = 0.8201 | 706.53 | – | –
[3], x1 = 0.8707 | 702.91 | – | –
[3], x1 = 0.9095 | – | – | 21.01
[3], x1 = 0.9212 | – | – | 21.05
[4], x1 = 0.0686 | – | 1.3641 | –
[4], x1 = 0.1132 | – | 1.367 | –
[4], x1 = 0.1721 | – | 1.3705 | –
[4], x1 = 0.1834 | – | 1.3711 | –
[4], x1 = 0.2867 | – | 1.3762 | –
[4], x1 = 0.35 | – | 1.3789 | –
[4], x1 = 0.3571 | – | 1.3792 | –
[4], x1 = 0.4544 | – | 1.3827 | –
[4], x1 = 0.4898 | – | 1.3839 | –
[4], x1 = 0.5401 | – | 1.3853 | –
[4], x1 = 0.5865 | – | 1.3866 | –
[4], x1 = 0.6299 | – | 1.3877 | –
[4], x1 = 0.6457 | – | 1.388 | –
[4], x1 = 0.669 | – | 1.3885 | –
[4], x1 = 0.765 | – | 1.3906 | –
[4], x1 = 0.8191 | – | 1.3917 | –
[4], x1 = 0.9095 | – | 1.3934 | –
[4], x1 = 0.9212 | – | 1.3939 | –

CCCCCO [pentan-1-ol]
Conditions | mass density [kg/m3] | refractive index | surface tension liquid-gas [mN/m]
[1] | 810.83 | – | 24.97
[2] | – | 1.408 | –

CCCCCO [pentan-1-ol] + CCCCCCCC
Conditions | refractive index, [4] | surface tension liquid-gas, [3] [mN/m]
x2 = 0.0189 | 1.4075 | –
x2 = 0.115 | 1.4058 | 23.88
x2 = 0.1459 | 1.4052 | 23.6
x2 = 0.1629 | 1.4049 | 23.5
x2 = 0.2727 | 1.403 | 22.8
x2 = 0.3271 | 1.4022 | 22.54
x2 = 0.4586 | 1.4003 | 22.06
x2 = 0.4927 | 1.3999 | 21.96
x2 = 0.5188 | 1.3996 | 21.91
x2 = 0.5951 | 1.3986 | 21.75
x2 = 0.655 | 1.3979 | 21.65
x2 = 0.6713 | 1.3977 | 21.63
x2 = 0.7676 | 1.3968 | 21.5
x2 = 0.7932 | 1.3966 | 21.46
x2 = 0.834 | 1.3963 | 21.41
x2 = 0.8869 | 1.3958 | 21.35
x2 = 0.9457 | 1.3955 | 21.27

CCCO [propan-1-ol]
Conditions | mass density [kg/m3] | refractive index | surface tension liquid-gas [mN/m]
[1] | 799.62 | – | 23.39
[2] | – | 1.383 | –
